Test results reported in US20110070258A1, “METHOD OF SLOWING THE AGING PROCESS BY ACTIVATING SIRTUIN ENZYMES” (Polifenoles Naturales, S.L., priority 2009, published 2011).

Legend:
[1] = Energy expenditure by indirect calorimetry in obese subjects (dose-response clinical trial); type: in vivo, human; conditions: for Energy Expenditure, Baseline: n = 4; for Energy Expenditure, Baseline / Energy Expenditure, 2 weeks / Energy Expenditure, 5 weeks / Energy Expenditure, 10 weeks / Energy Expenditure, 16 weeks / Total Energy Expenditure, to (16 weeks) / Total Energy Expenditure, From (baseline) / Change in Total Energy Expenditure, Net: NAFLD; for Change in Total Energy Expenditure, Net: baseline to 16 weeks
Method: Energy expenditure rate (EER) was measured in patients by indirect calorimetry. Oxygen was measured with an electrochemical oxygen sensor, and carbon dioxide was measured with an infrared carbon dioxide sensor (Ametec Carbon Dioxide Analyzer). Before each measurement, the instrument was calibrated with a mixture of O2 and CO2 gases. Rates of oxygen consumption (O2) and carbon dioxide production (CO2) were calculated and printed out at 1-min intervals. Energy expenditure was derived from O2 and CO2 values.
Obese subjects diagnosed with NAFLD and with apparently healthy liver (HL) were matched in pairs based on age, body weight and body fat mass and were randomly divided into Experimental NAFLD group (n=36), Placebo NAFLD (n=36), Experimental HL (n=19) and Placebo-HL group (n=19). Subjects were randomly assigned, in equal numbers, to the phytomedicine experimental groups and the Placebo control group, using the Simple Randomization Procedure. Their daily dietary intake was restricted to 1800±100 kcals, of which 50±5% was in the form of carbohydrates, 30±5% from protein, and 20±5% from fat. Subjects were also instructed to consume all the foods and beverages designated by dieticians and provided by the Institute, and to eat no other food or high calories beverages. […] During the clinical phase, subjects were required to visit a designated hospital three times a week for physiological and biochemical analysis. Institute provided all foods and beverages by designated dieticians and labeled as B, L, and D for breakfast, lunch and dinner, respectively.
The brown marine vegetable extract was suspended in 100 mg cold-pressed pomegranate seed oil. The pomegranate seed oil was standardized to contain a minimum of 70% punicic acid, for a total weight of 200 mg/capsule. The content of fucoxanthin in Experimental Sample (Xanthigen) was analyzed using high performance liquid chromatography method, and the fatty acids were analyzed by Gas Chromatography method. The HPLC profile of the brown marine vegetable extract is shown in FIG. 2A, along with an HPLC chromatogram of pure fucoxanthin for comparison in FIG. 2B.
Energy expenditure (EE) and substrate oxidations were measured by indirect calorimetry as described previously (Ranneries et al., 1998). Oxygen was measured with an electrochemical oxygen sensor, and carbon dioxide was measured by an infrared carbon dioxide sensor (Ametec Carbon Dioxide Analyzer). Calculations of EE and substrate oxidation rates were performed as previously described (Astrup et al., 1991). Protein oxidation was assumed to be constant and amounting to 15% of EE. […] The reliability was assessed by the coefficient of variation on resting energy expenditure repeated every week.

Sirt1 = Sirt1 expression by Western Blot in differentiated 3T3-L1 adipocytes; type: cell-based, mouse
Method: The effect of fucoxanthin/punicic acid mixtures on Sirt1 expression in murine cells was studied. Mouse 3T3-L1 pre-adipocytes purchased from the American Type Culture Collection (Rockville, Md.) were grown in Dubecco's modified Eagle's medium (DMEM) (Gibco BRL, Grand Island, N.Y.) supplemented with 2 mM glutamine (GIBCO BRL), 1% penicillin/streptomycin (10000 units of penicillin/mL and 10 mg streptomycin/mL) and 10% fetal bovine serum at 37° C. under a humidified 5% CO2 atmosphere. For differentiation of 3T3-L1 pre-adipocytes, cells were seeded into 6-well culture plates (2×10^4/mL) and cultured as described above. […] The fucoxanthin extract used in this study of Sirt1 expression in murine cells was an extract of the complete plant of Undaria […]. The extract contains 0.8% by weight fucoxanthin and 30% by weight marine vegetable oil. The fucoxanthin extract used may further contain ≦10.0 wt. % palm oil. The pomegranate seed oil used in this study contains 70 wt. % punicic acid, and is an extract of the seeds of the Punica granatum plant. […], the fucoxanthin/punicic acid mixture used in this study, contains 50 wt. % of the fucoxanthin extract, and 50 wt. % of the pomegranate seed oil. […] The total proteins are measured by Bio-Rad Protein Assay (Bio-Rad Laboratories, Munich, Germany). […]

CC(=O)O[C@H]1CC(C)(C)C(=C=C/C(C)=C/C=C/C(C)=C/C=C/C=C(C)/C=C/C=C(\C)C(=O)C[C@@]23O[C@]2(C)C[C@@H](O)CC3(C)C)[C@](C)(O)C1 [Fucoxanthin, fucoxanthin]
increase in daily energy expenditure rate ([1]; 25 mg fucoxanthin alone): 1152 ± 290 kJ/day
Energy Expenditure, Baseline ([1]; Fucoxanthin 10 mg per day): 5.82 ± 0.18 kJ/min
Energy Expenditure, 2 weeks ([1]; Fucoxanthin 10 mg per day): 5.69 ± 0.21 kJ/min
Energy Expenditure, 5 weeks ([1]; Fucoxanthin 10 mg per day): 5.93 ± 0.15 kJ/min
Energy Expenditure, 10 weeks ([1]; Fucoxanthin 10 mg per day): 5.69 ± 0.21 kJ/min
Energy Expenditure, 16 weeks ([1]; Fucoxanthin 10 mg per day): 5.98 ± 0.18 kJ/min
Total Energy Expenditure, to (16 weeks) ([1]; Fucoxanthin 10 mg per day): 8611 kJ/24 h
Total Energy Expenditure, From (baseline) ([1]; Fucoxanthin 10 mg per day): 8381 kJ/24 h
Change in Total Energy Expenditure, Net ([1]; Fucoxanthin 10 mg per day, NS vs placebo): Net 230 ± 147 kJ/24 h
Energy Expenditure, Baseline ([1]; Fucoxanthin 15 mg per day): 5.85 ± 0.27 kJ/min
Energy Expenditure, 2 weeks ([1]; Fucoxanthin 15 mg per day): 5.89 ± 0.14 kJ/min
Energy Expenditure, 5 weeks ([1]; Fucoxanthin 15 mg per day): 5.98 ± 0.17 kJ/min
Energy Expenditure, 10 weeks ([1]; Fucoxanthin 15 mg per day): 6.11 ± 0.21 kJ/min
Energy Expenditure, 16 weeks ([1]; Fucoxanthin 15 mg per day): 6.39 ± 0.17 kJ/min
Total Energy Expenditure, to (16 weeks) ([1]; Fucoxanthin 15 mg per day): 9202 kJ/24 h
Total Energy Expenditure, From (baseline) ([1]; Fucoxanthin 15 mg per day): 8424 kJ/24 h
Change in Total Energy Expenditure, Net ([1]; Fucoxanthin 15 mg per day, p < 0.05 vs placebo): Net 778 ± 260 kJ/24 h
Energy Expenditure, Baseline ([1]; Fucoxanthin 25 mg per day): 5.92 ± 0.16 kJ/min
Energy Expenditure, 2 weeks ([1]; Fucoxanthin 25 mg per day): 6.02 ± 0.23 kJ/min
Energy Expenditure, 5 weeks ([1]; Fucoxanthin 25 mg per day): 5.92 ± 0.27 kJ/min
Energy Expenditure, 10 weeks ([1]; Fucoxanthin 25 mg per day): 6.29 ± 0.31 kJ/min
Energy Expenditure, 16 weeks ([1]; Fucoxanthin 25 mg per day): 6.72 ± 0.22 kJ/min
Total Energy Expenditure, to (16 weeks) ([1]; Fucoxanthin 25 mg per day): 9677 kJ/24 h
Total Energy Expenditure, From (baseline) ([1]; Fucoxanthin 25 mg per day): 8525 kJ/24 h
Change in Total Energy Expenditure, Net ([1]; Fucoxanthin 25 mg per day, p < 0.05 vs placebo): Net 1152 ± 290 kJ/24 h
Energy Expenditure, Baseline ([1]; Fucoxanthin 50 mg per day): 6.04 ± 0.24 kJ/min
Energy Expenditure, 2 weeks ([1]; Fucoxanthin 50 mg per day): 5.91 ± 0.31 kJ/min
Energy Expenditure, 5 weeks ([1]; Fucoxanthin 50 mg per day): 6.32 ± 0.22 kJ/min
Energy Expenditure, 10 weeks ([1]; Fucoxanthin 50 mg per day): 6.92 ± 0.31 kJ/min
Energy Expenditure, 16 weeks ([1]; Fucoxanthin 50 mg per day): 7.37 ± 0.35 kJ/min
Total Energy Expenditure, to (16 weeks) ([1]; Fucoxanthin 50 mg per day): 10613 kJ/24 h
Total Energy Expenditure, From (baseline) ([1]; Fucoxanthin 50 mg per day): 8698 kJ/24 h
Change in Total Energy Expenditure, Net ([1]; Fucoxanthin 50 mg per day, p < 0.001 vs placebo): Net 1915 ± 246 kJ/24 h
EER ([1]; fucoxanthin dose of 1.6 mg per se): not effective per se
minimum effective dose (increase of EER), stand alone ([1]; obese subjects, stand alone): 2.4 mg

CCCC\C=C/C=C/C=C\CCCCCCCC(=O)O [punicic acid, 9-cis, 11-trans conjugated linolenic acid (9c,11t,13c-CLNA)]
Effect on Sirt1 protein levels / expression (Sirt1): suppresses Sirt1 expression
